These results are taken from US6713266B1 (Isodiagnostika Inc., priority 1998, dated 2004).

One assay has as its system MoAb CSA-2G9. Put plainly: Inhibition ELISA to the CSA-DVS-HSA conjugate, MoAb. Type of assay: binding, mouse. As for the experimental part:
(§1) Inhibition ELISA Protocol:
(§2) 1. Use Falcon Pro-bind immunoplates.
(§3) 2. Dilute coating antigen to 1 μg/mL in carbonate-bicarbonate buffer. Add 100 μL per well and incubate overnight at 4° C.
(§4) 3. On the same day prepare inhibiting antigen tubes. Aliquot antibodies into glass test tubes. Prepare appropriate antigen concentration in ethanol and add to aliquoted antibody at 10 μL ethanol solution/250 μL antibody. Vortex tubes and incubate overnight at 4° C.
(§5) 4. Shake out wells and wash 3× with 200 μL PBS/0.05% TWEEN™ (polyoxyethylene-sorbitol) (v/v) per well.
(§6) 5. Add 200 μL blocking buffer per well (PBS/2% BSA (w/v)). Incubate 60 min at room temperature.
(§7) 7. Transfer contents of inhibition tubes to antigen-coated plate, 100 μL per well. Incubate 60 min at 37° C.
(§8) 9. Dilute alkaline phosphatase conjugated anti-mouse IgG (Pierce cat#31322) in PBS/0.1% TWEEN™ (polyoxyethylene-sorbitol) (v/v) to 1:5000 concentration. Add 100 μL per well and incubate at 37° C. for 60 min.
(§9) 11. […] Add 100 μL per well and incubate in the dark at room temperature. Absorbance can be read at 405 nm at approximately 15-min intervals.
A general note: In an ELISA, binding on a coated surface is turned into a signal by an enzyme label.

In another assay the test system is MoAb CSA-1H6. The description is as above. The class given is binding, mouse. As for the experimental part:
as §1, §2, §3, §4, §5, §6, §7, §8, §9

In another assay the test system is MoAb AM1-7F5. The assay is described as above. Type of assay: binding, mouse. As for the experimental part:
as §1, §2, §3, §4, §5, §6, §7
(§10) 9. […] Add 100 μL per well and incubate at 37° C. for 60 min.
as §9

The test system of the next assay is MoAb AM1-2E10. Described as above. Type of assay: binding, mouse. Here is the method: as §1, §2, §3, §4, §5, §6, §7, §10, §9
The subject of assay [1] is Mouse polyclonal sera (CSA-DVS-KLH immunogen). Put plainly: Inhibition ELISA, CSA-DVS-HSA coated plate, mouse polyclonal sera. Type of assay: binding. Here is the method:
as §1, §2, §3, §4, §5, §6, §7, §10, §9

Assay [2] has as its system Mouse polyclonal sera (AM19-1-DVS (1) - KLH immunogen). Put plainly: Antigen panel (direct) ELISA, mouse polyclonal sera. The conditions noted are these: Mice 1 and 2. Type of assay: binding. Here is the method: (§11) 1. Use Falcon Pro-bind immunoplate.
(§12) 2. Dilute coating antigen (Ag) to 1.0 μg/mL in carbonate-bicarbonate buffer. Use glass tubes.
(§13) 3. Add 100 μL to each well of plate. Store overnight at 4° C.
as §5
(§14) 5. Add blocking buffer, 200 μL per well (PBS/2% BSA (w/v)). Incubate for 60 min at 37° C.
(§15) 7. Add 100 μL per well of test antibody appropriately diluted in PBS/0.1% Tween (v/v). Incubate 60 min at 37° C.
(§16) 9. Dilute alkaline phosphatase conjugated anti-mouse IgG (Pierce cat #31322) in PBS/0.1% TWEEN™ (polyoxyethylene-sorbitol) (v/v) to 1:2000 concentration. Add 100 μL per well and incubate at 37° C. for 60 min.
(§17) 10. Wash 3× as in step 4.
as §9
(§18) These serum samples were assayed by direct ELISA for antibody titre to specific haptens.

The subject of assay [3] is Mouse polyclonal sera (AM19-1-DVS (2) - KLH immunogen). Described as above. As to conditions: Mice 3 and 4. The class given is binding. Here is the method: as §11, §12, §13, §5, §14, §15, §16, §17, §9, §18
The test system of assay [4] is Rabbit polyclonal sera (AM19-1-DVS-KLH (1) immunogen). Put plainly: Inhibition ELISA, AM19-1-DVS (1) HSA coated plate, rabbit polyclonal sera. The class given is binding. As for the experimental part: as §1, §2, §3, §4, §5, §6, §7, §10, §9
The AM19-1-DVS (1) conjugate was also used to immunize rabbits.

Assay [5] concerns Mouse polyclonal sera (AM1-DVS-KLH immunogens). Briefly: Antigen panel (direct) ELISA, mouse polyclonal sera. The class given is binding. As for the experimental part:
as §11, §12, §13, §5, §14, §15, §16, §17, §9

Assay [6] deals with Mouse polyclonal sera (CSA-DVS-KLH immunogen). The description is as above. The class given is binding. As to conditions: KLH coated ELISA plates. Here is the method: as §11, §12, §13, §5, §14, §15, §16, §17, §9
The test system of assay [7] is Mouse polyclonal sera (AM19-9-DVS-KLH immunogens). The assay is described as above. Type of assay: binding. Here is the method: as §11, §12, §13, §5, §14, §15, §16, §17, §9
Assay [8] relates to Mouse polyclonal sera (AM9-9-DVS-KLH immunogen). The description is as above. Type of assay: binding. Here is the method: as §11, §12, §13, §5, §14, §15, §16, §17, §9
Assay [9] shares this test system. Briefly: Inhibition ELISA, AM19-9-DVS-HSA coated plate, mouse polyclonal sera. Type of assay: binding. As for the experimental part:
as §1, §2, §3, §4, §5, §6, §7, §10, §9

For assay [10], the system named is Mouse polyclonal sera (AM19-9-DVS-KLH immunogen). Briefly: Inhibition ELISA, AM19-9-DVS-HSA coated plates, mouse polyclonal sera. Type of assay: binding. Here is the method: as §1, §2, §3, §4, §5, §6, §7, §10, §9
Assay [11] concerns Mouse polyclonal sera (AM19-1-DVS (1) - KLH immunogen). Put plainly: Inhibition ELISA, AM19-1-DVS (1) HSA coated plate, mouse polyclonal sera. Type of assay: binding. Here is the method: as §1, §2, §3, §4, §5, §6, §7, §10, §9
The next assay relates to MoAb AM19-1-7E12-2. Put plainly: Inhibition ELISA with AM19-1-DVS (1) coated ELISA plates, MoAb. Type of assay: binding, mouse. The conditions noted are these: AM19-1-7F12-2. Here is the method: as §1, §2, §3, §4, §5, §6, §7, §10, §9
In a further assay the test system is MoAb AM19-1-7E12-1. The assay is described as above. The class given is binding, mouse. As to conditions: AM19-1-7E12-1 TCS. Here is the method:
as §1, §2, §3, §4, §5, §6, §7, §10, §9

Assay [12] concerns Mouse monoclonal antibody AM1-2E10. Put plainly: Antigen panel (direct) ELISA, MoAb tissue culture supernatant. Type of assay: binding. Here is the method: as §11, §12, §13, §5, §14, §15, §16, §17, §9
The subject of assay [13] is Mouse monoclonal antibody CSA-2G9. The assay is described as above. Type of assay: binding. As for the experimental part: as §11, §12, §13, §5, §14, §15, §16, §17, §9
Assay [14] relates to Mouse monoclonal antibody CSA-1H6. The description is as above. Type of assay: binding. Here is the method:
as §11, §12, §13, §5, §14, §15, §16, §17, §9

Assay [15] relates to Mouse monoclonal antibody AM1-7F5. The assay is described as above. Type of assay: binding. Here is the method: as §11, §12, §13, §5, §14, §15, §16, §17, §9
Assay [16] relates to Mouse polyclonal sera (AM19-1-DVS (2) - KLH immunogen). Briefly: Inhibition ELISA, AM19-1-DVS (2) HSA coated plate, mouse polyclonal sera. The class given is binding. As for the experimental part: as §1, §2, §3, §4, §5, §6, §7, §10, §9
Assay [17] relates to Mouse monoclonal antibody AM19-1-7E12-2. Briefly: Antigen panel (direct) ELISA, MoAb tissue culture supernatant. The class given is binding. Here is the method:
as §11, §12, §13, §5, §14, §15, §16, §17, §9
(§19) Spleen cells from mice immunized with the AM19-1-DVS (1) conjugate have been used to prepare MoAb secreting hybridoma cells.

For assay [18], the system named is Mouse monoclonal antibody AM19-1-7E12-1. Described as above. The class given is binding. As for the experimental part:
as §11, §12, §13, §5, §14, §15, §16, §17, §9, §19

Assay [19] relates to Mouse polyclonal sera (AM1-DVS-KLH immunogen). Put plainly: Inhibition ELISA to the CSA-DVS-HSA conjugate, mouse polyclonal sera. The class given is binding. Here is the method: as §1, §2, §3, §4, §5, §6, §7, §10, §9
The mark [20] stands for this setting: Mouse 1, inhibiting AG conc 0.156 μg/100 μL.
Where [21] appears, read: Mouse 1, inhibiting AG conc 0.313 μg/100 μL.
[22] abbreviates: Mouse 1, inhibiting AG conc 1.25 μg/100 μL.
[23] abbreviates: Mouse 1, inhibiting AG conc 5 μg/100 μL.
The mark [24] stands for this setting: Mouse 1, inhibiting AG conc 10 μg/100 μL.
[25] abbreviates: Mouse 2, inhibiting AG conc 0.156 μg/100 μL.
The mark [26] stands for this setting: Mouse 2, inhibiting AG conc 0.313 μg/100 μL.
[27] abbreviates: Mouse 2, inhibiting AG conc 1.25 μg/100 μL.
Setting [28] is: Mouse 2, inhibiting AG conc 5 μg/100 μL.
[29] abbreviates: Mouse 2, inhibiting AG conc 10 μg/100 μL.

Turning to `C=CCC1C=C(C)CC(C)CC(OC)C2OC(O)(C(=O)C(=O)N3CCCCC3C(=O)OC(C(C)=CC3CCC(O)C(OC)C3)C(C)C(O)CC1=NO)C(C)CC2OC` (centres unmarked) [III], the “Percent Inhibition” value was found to be 21.9% with MoAb CSA-2G9 (CSA-2G9, Table 24, CSA, CSG and CSA derivative inhibitors); 5.5% in the assay on MoAb CSA-1H6 (CSA-1H6, Table 24, CSA, CSG and CSA derivative inhibitors); 16.6% in the assay on MoAb AM1-7F5 (AM1-7F5, Table 24, CSA, CSG and CSA derivative inhibitors); 17.8% in the assay on MoAb AM1-2E10 (AM1-2E10, Table 24, CSA, CSG and CSA derivative inhibitors).
On to “FK-DVS-KLH: FK-DVS-KLH conjugate used as inhibitor”, for which the Percent Inhibition in [1] (setting [20]), in assay [1] (setting [21]), in assay [1] (setting [22]), in assay [1] (setting [23]), in assay [1] (setting [24]) and in assay [1] (setting [25]) was 0% in each case. The Percent Inhibition in assay [1] (setting [26]), in [1] (setting [27]), in [1] (setting [28]) and in assay [1] (setting [29]) was 0% each time.
Turning to “KLH: keyhole limpet hemocyanin, protein carrier”, the “antibody titres to the KLH carrier protein” value in assay [2], in assay [3] and in [8] was “significant antibody titres” throughout. The “Percent Inhibition” value is on record as 0% in assay [4]; 12.3% in assay [9] (Mouse 1); 35.8% in assay [9] (Mouse 2); 0% in [10] (Mouse 5); 0% in assay [10] (Mouse 6); 0% in assay [11] (Mouse 1). Further, the “Percent Inhibition” value in assay [11] (Mouse 2), in assay [1] (setting [20]), in assay [1] (setting [21]), in [1] (setting [22]), in [1] (setting [23]) and in [1] (setting [24]) was 0% each time. The Percent Inhibition in assay [1] (setting [25]), in assay [1] (setting [26]), in [1] (setting [27]), in [1] (setting [28]), in [1] (setting [29]) and in [16] (Mouse 3) was 0% in each case. The “Percent Inhibition” value in assay [16] (Mouse 4) was found to be 0%; in assay [19] (Mouse 1), 8.9%; in [19] (Mouse 2), 5.8%. Moreover, the “antibody response to the KLH carrier” value in assay [5] and in [6] was “significant response” each time. Besides, the “antibody titres to the KLH carrier” value in assay [7] is recorded as “Significant antibody titres”. Further, the “Percent Inhibition of TCS” value in the assay with MoAb CSA-2G9 (CSA-2G9 TCS, Table 16, CSA-DVS-HSA conjugate) came to 4.8%; in the assay on MoAb CSA-1H6 (CSA-1H6 TCS, Table 16, CSA-DVS-HSA conjugate), 0%; in the assay with MoAb AM1-7F5 (AM1-7F51, TCS, Table 18, CSA-DVS-HSA coated plate) it was 22.5%; in the assay on MoAb AM1-2E10 (AM1-2E10 TCS, Table 18, CSA-DVS-HSA coated plate) it was 0%; with MoAb AM19-1-7E12-2, 4.3%; in the assay on MoAb AM19-1-7E12-1, 3.8%. The Percent reactivity in assay [12] (AM1-2E10, OD to test antigen / OD to CSA-DVS-HSA × 100) came to 3.9%; in assay [13] (CSA-2G9, OD to test antigen / OD to CSA-DVS-HSA × 100), 0%; in assay [14] (CSA-1H6, OD to test antigen / OD to CSA-DVS-HSA × 100) it was 0%; in assay [15] (AM1-7F5, OD to test antigen / OD to CSA-DVS-HSA × 100), 0%; in [17] (AM19-1-7E12-2, OD to test antigen / OD to AM19-1-DVS (1)-HSA × 100), 0%; in assay [18] (AM19-1-7E12-1, OD to test antigen / OD to AM19-1-DVS (1)-HSA × 100), 0%. Also, the OD is given as 0.061 in assay [12] (AM1-2E10 TCS, coated test antigen); 0.026 in assay [13] (CSA-2G9 TCS, coated test antigen); 0 in [14] (CSA-1H6 TCS, coated test antigen); 0 in assay [15] (AM1-7F5 TCS, coated test antigen); 0 in assay [17] (AM19-1-7E12-2 TCS, coated test antigen); 0.023 in assay [18] (AM19-1-7E12-1 TCS, coated test antigen).
